What all share (assay type): cell-based, Human
For assay [1], the system named is H1581 (FGFR1 amp). As to the kind of experiment: In vitro growth inhibition of H1581 tumor cells (MTT/CCK8). The note with it: in vitro growth inhibition (or induction of apoptosis), cells cultured 3 to 5 days, MTT (CCK8), read-out: IC50 H1581 (FGFR1 amp).
Assay [2] relates to KATO III (FGFR2 amp). As to the kind of experiment: In vitro growth inhibition of KATO III tumor cells (MTT/CCK8). The note with it: in vitro growth inhibition (or induction of apoptosis), cells cultured 3 to 5 days, MTT (CCK8), read-out: IC50 KATO III (FGFR2 amp).
Assay [3] deals with Hep3B2 (FGFR3/4+++). The assay is described as follows: In vitro growth inhibition of Hep3B2 tumor cells (MTT/CCK8). The following applies: in vitro growth inhibition (or induction of apoptosis), cells cultured 3 to 5 days, MTT (CCK8), read-out: IC50 Hep3B2 (FGFR3/4+++).
Assay [4] has as its system MOLM-13 (FLT3-ITD). As to the kind of experiment: In vitro growth inhibition of MOLM-13 tumor cells (MTT/CCK8). The note with it: in vitro growth inhibition (or induction of apoptosis), cells cultured 3 to 5 days, MTT (CCK8), read-out: IC50 MOLM-13 (FLT3-ITD).
For assay [5], the system named is KCL-22 (BCR-ABL). The assay is described as follows: In vitro growth inhibition of KCL-22 tumor cells (MTT/CCK8). The note with it: in vitro growth inhibition (or induction of apoptosis), cells cultured 3 to 5 days, MTT (CCK8), read-out: IC50 KCL-22 (BCR-ABL).
Assay [6] deals with Kasumi-1 (KIT N822K). The assay is described as follows: In vitro growth inhibition of Kasumi-1 tumor cells (MTT/CCK8). The note with it: in vitro growth inhibition (or induction of apoptosis), cells cultured 3 to 5 days, MTT (CCK8), read-out: IC50 Kasumi-1 (KIT N822K).
The subject of assay [7] is H1703 (PDGFRa amp). As to the kind of experiment: In vitro growth inhibition of H1703 tumor cells (MTT/CCK8). The note with it: in vitro growth inhibition (or induction of apoptosis), cells cultured 3 to 5 days, MTT (CCK8), read-out: IC50 H1703 (PDGFRa amp).
In assay [8] the test system is Karpas 299 (NPM-ALK). The assay is described as follows: In vitro growth inhibition of Karpas 299 tumor cells (MTT/CCK8). The note with it: in vitro growth inhibition (or induction of apoptosis), cells cultured 3 to 5 days, MTT (CCK8), read-out: IC50 Karpas 299 (NPM-ALK).

This note sets out measurements from patent US10800741B2 (ANCUREALL PHARMACEUTICAL (SHANGHAI) CO., LTD., priority 2017, dated 2020).

Read-outs that look alike come from different tables or passages of the source.

For the molecule `COc1cc2nccc(Nc3ccc(NC(=O)Nc4cc(C(C)(C)C)n[nH]4)c(Cl)c3)c2cc1C(N)=O` [Compound 79, 4-{4-[3-(5-tert-butyl-2H-pyrazol-3-yl)-ureido]-3-chlorophenylamino}-7-methoxyquinol in-6-carboxamide], the IC50 was 0.254 µM in assay [1] (Homo sapiens, NCI-H1581); 0.0199 µM in assay [2] (Homo sapiens, KATO III); 0.384 µM in assay [3] (Homo sapiens, Hep3B); 0.107 µM in assay [4] (Homo sapiens, MOLM-13); greater than 1 µM in assay [5] (Homo sapiens, KCL-22); greater than 1 µM in assay [6] (Homo sapiens, Kasumi 1). Moreover, the IC50 was 0.278 µM in assay [7] (Homo sapiens, NCI-H1703) and greater than 1 µM in assay [8] (Homo sapiens, KARPAS-299).
As to `CC(C)(C)c1cc(NC(=O)Nc2ccc(Oc3ccnc4cc(OCCN5CCOCC5)c(C(N)=O)cc34)cc2Cl)[nH]n1` [Compound 81, 4-{4-[3-(5-tert-butyl-2H-pyrazol-3-yl)-ureido]-3-chloro-phenoxy}-7-(2-morpholin-4-yl-ethoxy) pyridine-6-carboxamide], the IC50 in assay [1] worked out at 0.00494 µM; in assay [2], 0.00031 µM; in assay [3] it was 0.0447 µM; in assay [4], 0.0119 µM; in assay [5] it was 0.0349 µM; in assay [6], 0.0267 µM. The figures for the IC50 in assay [7] and in assay [8] were 0.0113 µM and 0.466 µM, respectively.
Regarding `CN1CCN(CCCOc2cc3nccc(Oc4ccc(NC(=O)Nc5cc(C(C)(C)C)n[nH]5)c(Cl)c4)c3cc2C(N)=O)CC1` [Compound 82, 4-{4-[3-(5-tert-butyl-2H-pyrazol-3-yl)-ureido]-3-chloro-phenoxy}-7-[3-(4-methyl-piperazin-1-yl)-propoxy]-quinolin-6-carboxamide], the IC50 in assay [1] (Homo sapiens, NCI-H1581) is 0.00361 µM; in assay [2] (Homo sapiens, KATO III) it was 0.00294 µM; in assay [3] (Homo sapiens, Hep3B) it was 0.0239 µM; in assay [4] (Homo sapiens, MOLM-13) it was 0.0017 µM; in assay [5] (Homo sapiens, KCL-22), 0.0206 µM; in assay [6] (Homo sapiens, Kasumi 1), 0.00521 µM. Further, the IC50 is 0.00943 µM in assay [7] (Homo sapiens, NCI-H1703) and 0.174 µM in assay [8] (Homo sapiens, KARPAS-299).
`CN(C)CCOc1cc2nccc(Oc3ccc(NC(=O)Nc4cc(C(C)(C)C)n[nH]4)c(Cl)c3)c2cc1C(N)=O` [Compound 83]: the IC50 in assay [1] (Homo sapiens, NCI-H1581) is 0.0929 µM; in assay [2] (Homo sapiens, KATO III), 0.00594 µM; in assay [3] (Homo sapiens, Hep3B), 0.15 µM; in assay [4] (Homo sapiens, MOLM-13) it was 0.0153 µM; in assay [5] (Homo sapiens, KCL-22), 0.19 µM; in assay [6] (Homo sapiens, Kasumi 1), 0.26 µM. The IC50 in assay [7] (Homo sapiens, NCI-H1703) came to 0.0595 µM; in assay [8] (Homo sapiens, KARPAS-299) it was 0.851 µM.
As for `CC(C)(C)c1cc(NC(=O)Nc2ccc(Oc3ccnc4cc(OCCN5CCCCC5)c(C(N)=O)cc34)cc2Cl)[nH]n1` [Compound 84, 4-{4-[3-(5-tert-butyl-2H-pyrazol-3-yl)-ureido]-3-chloro-phenoxy}-7-(2-piperidin-1-yl-ethoxy)-quinolin-pyridine-6-carboxamide], the IC50 in assay [1] (Homo sapiens, NCI-H1581) amounted to 0.114 µM; in assay [2] (Homo sapiens, KATO III) it was 0.00609 µM; in assay [3] (Homo sapiens, Hep3B), 0.148 µM; in assay [4] (Homo sapiens, MOLM-13), 0.0352 µM; in assay [5] (Homo sapiens, KCL-22), 0.287 µM; in assay [6] (Homo sapiens, Kasumi 1), 0.24 µM. For the same molecule, the IC50 is 0.127 µM in assay [7] (Homo sapiens, NCI-H1703) and greater than 1 µM in assay [8] (Homo sapiens, KARPAS-299).
As to `COCCN1CCN(CCCOc2cc3nccc(Oc4ccc(NC(=O)Nc5cc(C(C)(C)C)n[nH]5)c(Cl)c4)c3cc2C(N)=O)CC1` [Compound 85, 4-{4-[3-(5-tert-butyl-2H-pyrazol-3-yl)-ureido]-3-chloro-phenoxy}-7-{3-[4-(2-methoxy-ethyl)-piperazin-1-yl]-propoxy}-quinolin-6-carboxamide], the IC50 in assay [1] (Homo sapiens, NCI-H1581) is 0.0142 µM; in assay [2] (Homo sapiens, KATO III), 0.00192 µM; in assay [3] (Homo sapiens, Hep3B), 0.0168 µM; in assay [4] (Homo sapiens, MOLM-13), 0.00283 µM; in assay [5] (Homo sapiens, KCL-22), 0.0331 µM; in assay [6] (Homo sapiens, Kasumi 1), 0.00649 µM. Also, the IC50 in assay [7] (Homo sapiens, NCI-H1703) came to 0.014 µM; in assay [8] (Homo sapiens, KARPAS-299), 0.263 µM.
As for `CC(C)(C)c1cc(NC(=O)Nc2ccc(Oc3ccnc4cc(O)c(C(N)=O)cc34)c(Cl)c2Cl)[nH]n1` [Compound 92, 4-{4-[3-(5-tert-butyl-2H-pyrazol-3-yl)-ureido]-2,3-dichloro-phenoxy}-7-hydroxy-quinolin-6-carboxamide], the IC50 came to 0.146 µM in assay [1] (Homo sapiens, NCI-H1581); 0.0175 µM in assay [2] (Homo sapiens, KATO III); 0.232 µM in assay [3] (Homo sapiens, Hep3B); 0.0289 µM in assay [4] (Homo sapiens, MOLM-13); 0.0675 µM in assay [5] (Homo sapiens, KCL-22); 0.182 µM in assay [6] (Homo sapiens, Kasumi 1). Also, the IC50 in assay [7] (Homo sapiens, NCI-H1703) amounted to 0.453 µM; in assay [8] (Homo sapiens, KARPAS-299), 0.749 µM.
`CN(C)CCOc1cc2nccc(Oc3ccc(NC(=O)Nc4cc(C(C)(C)C)n[nH]4)c(Cl)c3Cl)c2cc1C(N)=O` [Compound 93, 4-{4-[3-(5-tert-butyl-2H-pyrazol-3-yl)-ureido]-2,3-dichloro-phenoxy}-7-(2-dimethylamino-ethoxy)carboxamide]: the IC50 in assay [1] (Homo sapiens, NCI-H1581) was determined as 0.21 µM; in assay [2] (Homo sapiens, KATO III), 0.00353 µM; in assay [3] (Homo sapiens, Hep3B) it was 0.00984 µM; in assay [4] (Homo sapiens, MOLM-13), 0.0103 µM; in assay [5] (Homo sapiens, KCL-22), 0.00612 µM; in assay [6] (Homo sapiens, Kasumi 1), 0.00829 µM. In addition, the IC50 in assay [7] (Homo sapiens, NCI-H1703) turned out to be 0.0793 µM; in assay [8] (Homo sapiens, KARPAS-299), 0.178 µM.
In the case of `CC(C)(C)c1cc(NC(=O)Nc2ccc(Oc3ccnc4cc(OCCN5CCOCC5)c(C(N)=O)cc34)c(Cl)c2Cl)[nH]n1` [Compound 94, 4-{4-[3-(5-tert-butyl-2H-pyrazol-3-yl)-ureido]-2,3-dichloro-phenoxy}-7-(2-morpholin-4-yl-ethoxy)-quinolin-6-carboxamide], the IC50 turned out to be 0.00417 µM in assay [1] (Homo sapiens, NCI-H1581); 0.00089 µM in assay [2] (Homo sapiens, KATO III); 0.0106 µM in assay [3] (Homo sapiens, Hep3B); 0.00161 µM in assay [4] (Homo sapiens, MOLM-13); 0.00366 µM in assay [5] (Homo sapiens, KCL-22); 0.00422 µM in assay [6] (Homo sapiens, Kasumi 1). Further, the IC50 in assay [7] (Homo sapiens, NCI-H1703) amounted to 0.00503 µM; in assay [8] (Homo sapiens, KARPAS-299), 0.065 µM.
In the case of `CC(C)(C)c1cc(NC(=O)Nc2ccc(Oc3ccnc4cc(OCCN5CCCCC5)c(C(N)=O)cc34)c(Cl)c2Cl)[nH]n1` [Compound 96, 4-{4-[3-(5-tert-butyl-2H-pyrazol-3-yl)-ureido]-2,3-dichloro-phenoxy}-7-(2-piperidin-1-yl-ethoxy)-quinolin-6-carboxamide], the IC50 came to 0.038 µM in assay [1] (Homo sapiens, NCI-H1581); 0.00172 µM in assay [2] (Homo sapiens, KATO III); 0.0366 µM in assay [3] (Homo sapiens, Hep3B); 0.00723 µM in assay [4] (Homo sapiens, MOLM-13); 0.0102 µM in assay [5] (Homo sapiens, KCL-22); 0.0314 µM in assay [6] (Homo sapiens, Kasumi 1). The IC50 in assay [7] (Homo sapiens, NCI-H1703) was 0.045 µM; in assay [8] (Homo sapiens, KARPAS-299), greater than 1 µM.
In the case of `COc1cc2nccc(Nc3ccc(NC(=O)Nc4cc(C(C)(C)C)n[nH]4)cc3Cl)c2cc1C(N)=O` [Compound 97, 4-{4-[3-(5-tert-butyl-2H-pyrazol-3-yl)-ureido]-2-chloro-phenylamino}-7-methoxy-quinolin-6-carboxamide], the IC50 in assay [1] (Homo sapiens, NCI-H1581) was 0.254 µM; in assay [2] (Homo sapiens, KATO III) it was 0.117 µM; in assay [3] (Homo sapiens, Hep3B), 0.456 µM; in assay [4] (Homo sapiens, MOLM-13), 0.0008 µM; in assay [5] (Homo sapiens, KCL-22) it was 0.122 µM; in assay [6] (Homo sapiens, Kasumi 1), greater than 1 µM. Also, the IC50 worked out at 0.342 µM in assay [7] (Homo sapiens, NCI-H1703) and 0.803 µM in assay [8] (Homo sapiens, KARPAS-299).
Regarding `COc1cc2nccc(Nc3ccc(NC(=O)Nc4cc(C(C)(C)C)n[nH]4)cc3C)c2cc1C(N)=O` [Compound 98, 4-{4-[3-(5-tert-butyl-2H-pyrazol-3-yl)-ureido]-2-methyl-phenylamino}-7-methoxy-quinolin-6-carboxamide], the IC50 in assay [1] (Homo sapiens, NCI-H1581) was 0.433 µM; in assay [2] (Homo sapiens, KATO III), 0.27 µM; in assay [3] (Homo sapiens, Hep3B), 0.843 µM; in assay [4] (Homo sapiens, MOLM-13), 0.006 µM; in assay [5] (Homo sapiens, KCL-22), greater than 1 µM; in assay [6] (Homo sapiens, Kasumi 1), greater than 1 µM. The IC50 in assay [7] (Homo sapiens, NCI-H1703) was 0.605 µM; in assay [8] (Homo sapiens, KARPAS-299) it was greater than 1 µM.
For the molecule `COc1cc2nccc(Nc3ccc(NC(=O)Nc4cc(C(C)(C)C)on4)cc3C)c2cc1C(N)=O` [Compound 99, 4-{4-[3-(5-tert-butyl-isoxazol-3-yl)-ureido]-2-methyl-phenylamino}-7-methoxy-quinolin-6-carboxamide], the IC50 was 0.294 µM in assay [1] (Homo sapiens, NCI-H1581); 0.0378 µM in assay [2] (Homo sapiens, KATO III); 0.862 µM in assay [3] (Homo sapiens, Hep3B); 0.00341 µM in assay [4] (Homo sapiens, MOLM-13); 0.264 µM in assay [5] (Homo sapiens, KCL-22); 0.355 µM in assay [6] (Homo sapiens, Kasumi 1). Moreover, the IC50 in assay [7] (Homo sapiens, NCI-H1703) was 0.128 µM; in assay [8] (Homo sapiens, KARPAS-299), greater than 1 µM.
